Laboratory results: US20090263341A1, “SOFT ANTICHOLINERGIC ESTERS” (priority 2005, published 2009)
Counter-ions that a name gives are not always drawn. Like-named read-outs stand apart in the source and are kept apart here.

Tests used:
[1] = tested on: acetylcholine-induced bronchoconstriction; conditions: guinea pig, in vivo
[2] = biological target: T1, cloned human muscarinic receptor subtype M4 (Homo sapiens, UniProt P08173); test: Receptor binding, [3H]NMS, cloned human muscarinic receptor M4
T1 construct: purchased Applied Cell Science Inc. (Rockville, Md.)
T1 sequence (P08173 1-479): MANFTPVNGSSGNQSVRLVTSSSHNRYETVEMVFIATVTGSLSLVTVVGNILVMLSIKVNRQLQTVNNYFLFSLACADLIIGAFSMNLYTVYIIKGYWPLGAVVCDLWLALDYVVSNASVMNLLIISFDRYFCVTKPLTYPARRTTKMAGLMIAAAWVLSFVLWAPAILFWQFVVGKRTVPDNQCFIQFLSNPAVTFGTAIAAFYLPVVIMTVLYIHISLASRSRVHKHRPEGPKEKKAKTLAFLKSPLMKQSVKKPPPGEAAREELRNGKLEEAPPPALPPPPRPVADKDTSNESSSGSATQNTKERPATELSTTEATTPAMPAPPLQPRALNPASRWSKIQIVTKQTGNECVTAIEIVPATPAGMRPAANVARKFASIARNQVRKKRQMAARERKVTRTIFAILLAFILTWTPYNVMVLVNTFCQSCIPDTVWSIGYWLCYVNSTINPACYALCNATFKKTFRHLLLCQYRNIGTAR

[3] = biological target: T2, cloned human muscarinic receptor subtype M1 (Homo sapiens, UniProt P11229); test: Receptor binding, [3H]NMS, cloned human muscarinic receptor M1
T2 sequence (P11229 1-460): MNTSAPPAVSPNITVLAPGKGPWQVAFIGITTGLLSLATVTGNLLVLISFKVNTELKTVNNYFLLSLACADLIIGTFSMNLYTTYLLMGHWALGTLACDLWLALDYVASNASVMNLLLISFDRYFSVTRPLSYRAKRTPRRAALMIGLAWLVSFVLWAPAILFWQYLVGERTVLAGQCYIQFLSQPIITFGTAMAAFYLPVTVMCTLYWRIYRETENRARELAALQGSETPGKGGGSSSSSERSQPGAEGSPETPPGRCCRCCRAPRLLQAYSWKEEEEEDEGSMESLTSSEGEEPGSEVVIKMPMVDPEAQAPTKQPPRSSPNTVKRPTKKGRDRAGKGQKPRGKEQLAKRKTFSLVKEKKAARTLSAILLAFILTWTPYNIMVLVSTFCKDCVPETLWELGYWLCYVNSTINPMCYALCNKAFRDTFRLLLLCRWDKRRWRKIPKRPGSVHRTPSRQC

[4] = tested on: guinea pig tracheal rings; test: Guinea pig trachea assay, pA2 against carbachol (Schild plot)
Procedure: Changes in isometric tension were measured by a force displacement transducer (Experimetria, Budapest, Hungary) coupled to a Watanabe recorder. Cumulative concentration-effect curves were constructed to carbachol in the absence or presence of the antagonists. In each animal two preparations were used as time control (i.e., repeated carbachol curves in the absence of any antagonist) the remaining two preparations were used to test responses in the presence of two different concentrations of the antagonist.
Antagonists were added to the organ bath 30 min prior to commencement of the agonist concentration versus effect curves. Schild plots were constructed for the antagonists against carbachol and pA2 values as well as slope estimates were obtained.
Responses were measured as changes in isometric tension and calculated as a percentage of the maximum response attained in the initial concentration-response curve. Determination of antagonist potencies was done by constructing Schild double logarithmic plot of log (DR-1) versus −log M concentrations of the antagonist, and the slope of the plot was computed. […] Statistical significance was assessed by ANOVA followed by Dunnett test.

[5] = biological target: T3, cloned human muscarinic receptor subtype M2 (Homo sapiens, UniProt P08172); test: Receptor binding, [3H]NMS, cloned human muscarinic receptor M2
T3 sequence (P08172 1-466): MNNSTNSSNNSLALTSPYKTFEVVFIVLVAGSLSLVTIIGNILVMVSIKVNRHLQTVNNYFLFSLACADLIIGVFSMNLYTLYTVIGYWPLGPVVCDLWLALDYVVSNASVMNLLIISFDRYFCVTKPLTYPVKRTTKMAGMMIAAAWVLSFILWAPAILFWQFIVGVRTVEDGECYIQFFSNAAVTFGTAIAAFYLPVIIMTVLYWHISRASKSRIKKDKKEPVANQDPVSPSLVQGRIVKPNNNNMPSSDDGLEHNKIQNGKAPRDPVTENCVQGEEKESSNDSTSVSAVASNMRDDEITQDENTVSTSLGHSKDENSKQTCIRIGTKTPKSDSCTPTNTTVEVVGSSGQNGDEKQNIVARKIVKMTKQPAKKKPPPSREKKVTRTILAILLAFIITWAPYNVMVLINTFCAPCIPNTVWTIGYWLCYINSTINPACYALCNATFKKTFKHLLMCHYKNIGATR

[6] = tested on: guinea pig ileum (M3 muscarinic receptors)
[7] = tested on: guinea pig ileum longitudinal muscle strips; test: Guinea pig ileum longitudinal muscle assay, pA2 against acetylcholine (Schild plot)
[8] = biological target: T4, cloned human muscarinic receptor subtype M3 (Homo sapiens, UniProt P20309); test: Receptor binding, [3H]NMS, cloned human muscarinic receptor M3
T4 construct: purchased Applied Cell Science Inc. (Rockville, Md.)

[9] = biological target: muscarinic receptors (mainly M1) of rat brain cortex membranes (Rattus norvegicus, UniProt P08482); type: binding
[10] = tested on: electrically stimulated guinea pig tracheal strips; test: Time course of anticholinergic effect in electrically stimulated guinea pig trachea
[11] = biological target: cloned human muscarinic receptor subtypes M1-M4; test: Receptor binding at cloned human muscarinic receptors, values stated across subtypes (ranges, M3/M2 selectivity)
[12] = time from washout to 20% recovery of cholinergic responses

## C[N+]1(CC(=O)OCC(Cl)(Cl)Cl)[C@@H]2C[C@@H](OC(=O)C(O)(c3cccs3)c3cccs3)C[C@H]1[C@@H]1O[C@@H]12 (some centres unmarked) (as salt: bromide)
other
  melting point: 105 °C

## C[N+]1(C)CCC(OC(=O)C(O)(c2ccccc2)C2CCCC2)C1.[Br-] (mixture of isomers) [glycopyrrolate, 3-(2-cyclopentyl-2-phenyl-2-hydroxyacetoxy)-1,1-dimethylpyrrolidinium bromide, reference compound]
[1]
  effect on acetylcholine-induced bronchoconstriction: protective effect
[2]
  Hill slope, M4: (1.02 ± 0.01)
[3]
  Hill slope, M1: (1.37 ± 0.20)
[4]
  pA2, Trachea: 9.43
[5]
  Hill slope, M2: (0.99 ± 0.11)
[6]
  pA2: 8.57±0.12
[7]
  pA2, Ileum: 9.66
[8]
  Hill slope, M3: (1.14 ± 0.25)

## CCOC(=O)C[N@@+]1(C)CC[C@@H](OC(=O)[C@](O)(c2ccccc2)C2CCCC2)C1 [Compound (n), (2R,1′S,3′R) 3-(2-cyclopentyl-2-phenyl-2-hydroxyacetoxy)-1-(ethoxycarbonylmethyl)-1-methylpyrrolidinium bromide]
[9]; Table 8
  Hill slope: −1.07 ± 0.02

## C[N+]1(C)[C@@H]2C[C@@H](OC(=O)[C@H](CO)c3ccccc3)C[C@H]1[C@@H]1O[C@@H]12 [scopolamine methyl bromide, scopolamine methylbromide, reference compound]
[5]
  Hill slope, M2: (1.02 ± 0.02)

## CC(C)[N+]1(C)[C@@H]2CC[C@H]1CC(OC(=O)C(CO)c1ccccc1)C2.[Br-] (some centres unmarked) [Ipratropium Br, ipratropium bromide, reference compound]
[10]
  t1/5 onset: 3.0 min
[4]
  pA2, Trachea: 9.18

## C[N+]1(C)[C@@H]2C[C@@H](OC(=O)C(O)(c3cccs3)c3cccs3)C[C@H]1[C@@H]1O[C@@H]12 [Tiotropium, tiotropium]
[10]
  t1/5 offset: >360 min
  t1/5 onset: 8.0 min

## CN1[C@@H]2CC[C@H]1C[C@@H](OC(=O)C(CO)c1ccccc1)C2 (some centres unmarked) [Atropine, atropine]
[10]
  t1/5 offset: 10 min
  t1/5 onset: 2.5 min
[7]
  pA2, Ileum: 8.52

## CCOC(=O)C[N@+]1(C)CC[C@@H](OC(=O)[C@](O)(c2ccccc2)C2CCCC2)C1 [Compound (m), (2R,1′R,3′R) 3-(2-cyclopentyl-2-phenyl-2-hydroxyacetoxy)-1-(ethoxycarbonylmethyl)-1-methylpyrrolidinium bromide]
[1]
  effect on acetylcholine-induced bronchoconstriction: protective effect
[9]; Table 8
  Hill slope: −0.93 ± 0.08
[4]; against carbachol, tissue from four animals
  pA2, Trachea: 8.12
[7]; tissue samples from four animals
  pA2, Ileum: 8.48

## CCOC(=O)C[N+]1(C)[C@@H]2C[C@@H](OC(=O)C(O)(c3cccs3)c3cccs3)C[C@H]1[C@@H]1O[C@@H]12 (stereo partly drawn) [Compound (w), 6β,7β-epoxy-3,8-hydroxy-8-ethoxycarbonylmethyl-8-methyl-1αH,5αH-tropaniun bromide, di-2-thienylglycolate]
[9]
  Hill slope: −1.00 ± 0.04
  Ki: 7.2 ± 0.5 nM
[10]; onset of inhibition
  t1/5 onset: 0.6 min
[10]; [12]
  t1/5 offset: 60 min
[4]
  pA2, Trachea: 8.82

## C[N+]1(CC(=O)O)[C@@H]2C[C@@H](OC(=O)C(O)(c3cccs3)c3cccs3)C[C@H]1[C@@H]1O[C@@H]12 (stereo partly drawn) [Compound (aa), 6β,7β-epoxy-3β-hydroxy-8-carboxymethyl-8-methyl-1αH,5αH-tropanuim, di-2-thienylglycolate inner salt]
[10]; onset of inhibition
  t1/5 onset: 0.9 min
[10]; [12]
  t1/5 offset: 27 min

## CCOC(=O)C[N+]1(C)[C@@H]2C[C@@H](OC(=O)C(O)(c3cccs3)c3cccs3)C[C@H]1[C@@H]1O[C@@H]12 (stereo partly drawn) (as salt: bromide) [Compound (w), 6β,7β-epoxy-3,8-hydroxy-8-ethoxycarbonylmethyl-8-methyl-1αH,5αH-tropaniun bromide, di-2-thienylglycolate]
other
  melting point: 115 °C

## C[N+]1(CC(=O)O)[C@@H]2C[C@@H](OC(=O)C(O)(c3cccs3)c3cccs3)C[C@H]1[C@@H]1O[C@@H]12 (stereo partly drawn) (as salt: salt) [Compound (aa), 6β,7β-epoxy-3β-hydroxy-8-carboxymethyl-8-methyl-1αH,5αH-tropanuim, di-2-thienylglycolate inner salt]
other
  melting point: 158 to 165 °C (dec.)

## CCOC(=O)C[N+]1(C)CC[C@H](OC(=O)[C@](O)(c2ccccc2)C2CCCC2)C1 (mixture of isomers) [Compound (j), (2R,3′S) 3-(2-cyclopentyl-2-phenyl-2-hydroxyacetoxy)-1-(ethoxycarbonylmethyl)-1-methylpyrrolidinium bromide]
[2]; mean ± SD of 3 experiments, read-out: receptor binding affinity pKi, M4 (converted)
  Ki: 1.95 nM
[2]; numbers in parentheses
  Hill slope, M4: (1.15 ± 0.03)
[3]; mean ± SD of 3 experiments, read-out: receptor binding affinity pKi, M1 (converted)
  Ki: 2.09 nM
[3]; numbers in parentheses
  Hill slope, M1: (1.21 ± 0.33)
[11]
  pKi, range over subtypes M1-M4: 8.2-8.7
[11]; M3/M2 affinity ratio
  Selectivity M3/M2 (affinity ratio): 2.8±0.8 times
[5]; mean ± SD of 3 experiments, read-out: receptor binding affinity pKi, M2 (converted)
  Ki: 6.17 nM
[5]; numbers in parentheses
  Hill slope, M2: (1.27 ± 0.11)
[8]; mean ± SD of 3 experiments, read-out: receptor binding affinity pKi, M3 (converted)
  Ki: 2.29 nM
[8]; numbers in parentheses
  Hill slope, M3: (1.33 ± 0.16)
